From publication PMC8068036, “Synthesis of New Biscoumarin Derivatives, In Vitro Cholinesterase Inhibition, Molecular Modelling and Antiproliferative Effect in A549 Human Lung Carcinoma Cells” (International Journal of Molecular Sciences, 2021)
Entries after “also recorded” stand apart in the source; their conditions may differ.

Assays:
hBChE (human plasma) = molecular target: T1, hBChE (human plasma) (Homo sapiens, UniProt P06276); test: biochemical; type: biochemical; details: human plasma BChE, mean of at least three experiments
T1 construct: Human plasma was used as a source of BChE; from tissue; host or cells: human plasma from heparinized blood
Method: (§1) Human recombinant AChE (EC 3.1.1.7), 5,5′-dithiobis(2-nitrobenzoic acid) (Ellman′s reagent, DTNB), phosphate buffer (PB, 0.1 M, pH 7.4), and acetylthiocholine (ATC) and butyrylthiocholine (BTC), were purchased from Sigma-Aldrich, Prague, Czech Republic. Human plasma was used as a source of BChE and was prepared from heparinized human blood. The blood was centrifuged for 20 min (4 °C, 2300× g) on a Hettich Universal 320R centrifuge. The plasma was separated and stored at […]. Polystyrene Nunc 96-well microplates with a flat bottom shape (ThermoFisher Scientific, Waltham, MA, USA) were used for measuring purposes.
(§2) All of the assays were carried out in a 0.1 M phosphate buffer, pH 7.4. The assay medium (100 µL) consisted of 40 µL of 0.1 M phosphate buffer (pH 7.4), 20 µL of 0.01 M DTNB, 10 µL of the enzyme, and 20 µL of 0.01 M substrate ATC/BTC iodide solution).
(§3) The tested compounds were preincubated for 5 min prior to use. The reaction was initiated immediately upon addition of 20 µL of the substrate. […] Each concentration was assayed in triplicate. Software GraphPad Prism 5 (San Diego, CA, USA) was used in the evaluation of the statistical data.

human recombinant AChE = molecular target: T2, human recombinant AChE (Homo sapiens, UniProt P22303); test: biochemical; type: biochemical; details: mean of at least three experiments
T2 construct: purchased Sigma-Aldrich, Prague, Czech Republic
Method: as §1, §2, §3

in vitro = test: in vitro
Method: The parallel artificial membrane permeability assay (PAMPA) is used as a non-cell-based in vitro assay to predict BBB penetration and is carried out in a coated 96-well membrane filter. In our assays, the filter membrane of the donor plate was coated with PBL (Polar Brain Lipid, Avanti, Denver, CO, USA) in dodecane (4 µL of 20 mg mL^−1 PBL in dodecane), and the acceptor well was filled with 300 µL of phosphate buffered saline (PBS) (pH 7.4; VA). The tested compounds were first dissolved in DMSO, and the resulting mixture was diluted with PBS (pH 7.4) to reach the final concentration (40–100 µM) in the donor well. […] Three hundred microliters of the donor solution (VD) were added to the donor wells, and the donor filter plate was carefully placed onto the acceptor plate to ensure that the coated membrane was “in contact” with both the donor solution and the acceptor buffer. The test compound diffused from the donor well through the polar brain lipid membrane (area = 0.28 cm^2) to the acceptor well. The concentration of the tested compound in both the donor and acceptor wells was assessed after 3, 4, 5, and 6 h of incubation, respectively, in quadruplicate using a UV plate reader Synergy HT (Biotek, Winooski, VT, USA) at the maximum absorption wavelength of each compound. Additionally, solutions at the theoretical equilibrium of the given compound (i.e., the theoretical concentration if the donor and acceptor compartment were simply combined) were also prepared.

A549 cells = test: Cell cycle analysis (flow cytometry, PI); type: cell-based, human; details: 35 and 65 µM, 24 h
Method: For flow cytometric analysis of the cell cycle distribution, floating and adherent cells were harvested together 24 h after treatment with the derivatives (35 and 65 µM), washed in cold PBS, fixed in cold 70% ethanol, and stored overnight at −20 °C. Prior to analysis, the cells were washed twice in PBS, resuspended in a staining solution (0.1% Triton X-100, 0.137 g L^−1 ribonuclease A and 0.02 g L^−1 propidium iodide—PI), and incubated in dark conditions at RT for 30 min. The DNA content was analyzed using a BD FACSCalibur flow cytometer (Becton Dickinson, San Jose, CA, USA) with a 488 nm argon-ion excitation laser, and fluorescence was detected using a 585/42 nm band-pass filter (FL-2). ModFit 3.0 software (Verity Software House, Topsham, ME, USA) was used to generate DNA content frequency histograms and to quantify the percentage of cells in the individual cell cycle phases. The results are presented as the average ratio of cells in the individual phase to all cells from three independent experiments.

T1 sequence (P06276 29-602): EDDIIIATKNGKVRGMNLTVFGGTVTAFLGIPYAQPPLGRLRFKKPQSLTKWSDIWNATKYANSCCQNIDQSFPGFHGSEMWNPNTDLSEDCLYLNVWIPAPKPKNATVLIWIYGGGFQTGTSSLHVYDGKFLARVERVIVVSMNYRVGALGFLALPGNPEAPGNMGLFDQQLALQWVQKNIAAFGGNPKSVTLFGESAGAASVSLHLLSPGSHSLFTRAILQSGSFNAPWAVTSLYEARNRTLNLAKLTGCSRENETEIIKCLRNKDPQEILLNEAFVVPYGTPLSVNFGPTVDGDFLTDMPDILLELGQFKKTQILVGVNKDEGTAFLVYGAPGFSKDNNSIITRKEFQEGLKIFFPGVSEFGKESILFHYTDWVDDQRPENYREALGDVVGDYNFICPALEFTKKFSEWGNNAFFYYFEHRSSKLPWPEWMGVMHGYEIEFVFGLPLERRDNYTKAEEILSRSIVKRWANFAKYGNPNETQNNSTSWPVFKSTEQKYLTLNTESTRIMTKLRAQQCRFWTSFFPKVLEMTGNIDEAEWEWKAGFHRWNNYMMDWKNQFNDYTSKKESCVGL
T2 sequence (P22303 32-614): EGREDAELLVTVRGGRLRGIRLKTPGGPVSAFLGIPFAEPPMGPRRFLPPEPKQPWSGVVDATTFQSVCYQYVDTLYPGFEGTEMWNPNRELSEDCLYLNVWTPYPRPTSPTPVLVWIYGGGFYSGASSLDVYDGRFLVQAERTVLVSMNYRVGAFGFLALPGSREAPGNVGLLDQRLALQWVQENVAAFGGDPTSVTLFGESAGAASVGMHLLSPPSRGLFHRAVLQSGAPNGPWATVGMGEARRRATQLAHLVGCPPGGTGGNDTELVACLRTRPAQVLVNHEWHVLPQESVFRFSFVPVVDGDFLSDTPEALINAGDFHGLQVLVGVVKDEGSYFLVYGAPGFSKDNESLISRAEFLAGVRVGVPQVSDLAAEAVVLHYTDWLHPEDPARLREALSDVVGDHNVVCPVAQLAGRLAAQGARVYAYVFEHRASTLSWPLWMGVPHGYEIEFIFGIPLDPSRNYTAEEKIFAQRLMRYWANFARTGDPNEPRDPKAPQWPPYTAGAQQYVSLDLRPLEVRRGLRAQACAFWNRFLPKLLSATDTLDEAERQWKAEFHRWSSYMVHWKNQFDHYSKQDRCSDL

With `COC(=O)Cc1cc(=O)oc2cc(OCCCCCCCCN3CCN(CCNC(=O)Cc4cc(=O)oc5cc(O)ccc45)CC3)ccc12` [12e, Methyl 2-[7-({2-[4-(2-{[2-(7-hydroxy-2-oxo-2H-4-chromenyl)acetyl]amino}etyl)piperazino]oktyl}oxy)-2-oxo-2H-4-chromenyl]acetate] the “IC50 ± S.E.M. hBChE” value (hBChE (human plasma)) was “did not show inhibitory activity”, the IC50 (hBChE (human plasma); read-out: IC50 ± S.E.M. hBChE) was greater than 500 µM and the “IC50 ± S.E.M. hAChE” value (human recombinant AChE) was “did not show inhibitory activity”. For the same compound, the IC50 (human recombinant AChE; read-out: IC50 ± S.E.M. hAChE) was greater than 500 µM, the “BBB permeability prediction (in words)” value (in vitro; PAMPA) was “positive outcome; also recorded: high probability of BBB permeability; also recorded: high probability to cross the BBB” and the Papp (in vitro; PAMPA, pH 7.4) was 13.4 ± 3.56 ×10⁻⁶ cm/s. For the same compound, the “CNS Predicted Availability” value (in vitro; classification from PAMPA-BBB Pe) was “CNS+ (CNS+: high BBB permeation predicted with Pe (×10^−6 cm s^−1) > 4.0)” and the “Cell cycle distribution, G0/G1 phase (in words)” value (A549 cells) was “increase in the percentage of the cell population in the G0/G1 phase”.
